Data from BigSolDB 2.1.

SMILES: O=[N+]([O-])c1cccc2ccccc12
- solubility (mole fraction) (in acetone, 273.15 K): 0.145
- solubility (mole fraction) (in acetone, 278.15 K): 0.181
- solubility (mole fraction) (in acetone, 283.15 K): 0.232
- solubility (mole fraction) (in acetone, 288.15 K): 0.277
- solubility (mole fraction) (in acetone, 293.15 K): 0.344
- solubility (mole fraction) (in acetone, 298.15 K): 0.426
- solubility (mole fraction) (in acetone, 303.15 K): 0.508
- solubility (mole fraction) (in acetone, 308.15 K): 0.603
- solubility (mole fraction) (in acetonitrile, 273.15 K): 0.0535
- solubility (mole fraction) (in acetonitrile, 278.15 K): 0.0739
- solubility (mole fraction) (in acetonitrile, 283.15 K): 0.104
- solubility (mole fraction) (in acetonitrile, 288.15 K): 0.149
- solubility (mole fraction) (in acetonitrile, 293.15 K): 0.225
- solubility (mole fraction) (in acetonitrile, 298.15 K): 0.322
- solubility (mole fraction) (in acetonitrile, 303.15 K): 0.433
- solubility (mole fraction) (in acetonitrile, 308.15 K): 0.591
- solubility (mole fraction) (in cyclohexane, 278.15 K): 0.00743
- solubility (mole fraction) (in cyclohexane, 283.15 K): 0.0104
- solubility (mole fraction) (in cyclohexane, 288.15 K): 0.0134
- solubility (mole fraction) (in cyclohexane, 293.15 K): 0.0177
- solubility (mole fraction) (in cyclohexane, 298.15 K): 0.0261
- solubility (mole fraction) (in cyclohexane, 303.15 K): 0.0382
- solubility (mole fraction) (in cyclohexane, 308.15 K): 0.0532
- solubility (mole fraction) (in dichloromethane, 273.15 K): 0.241
- solubility (mole fraction) (in dichloromethane, 278.15 K): 0.283
- solubility (mole fraction) (in dichloromethane, 283.15 K): 0.328
- solubility (mole fraction) (in dichloromethane, 288.15 K): 0.384
- solubility (mole fraction) (in dichloromethane, 293.15 K): 0.434
- solubility (mole fraction) (in dichloromethane, 298.15 K): 0.5
- solubility (mole fraction) (in dichloromethane, 303.15 K): 0.554
- solubility (mole fraction) (in dichloromethane, 308.15 K): 0.637
- solubility (mole fraction) (in ethanol, 273.15 K): 0.00915
- solubility (mole fraction) (in ethanol, 278.15 K): 0.0111
- solubility (mole fraction) (in ethanol, 283.15 K): 0.0138
- solubility (mole fraction) (in ethanol, 288.15 K): 0.0173
- solubility (mole fraction) (in ethanol, 293.15 K): 0.0218
- solubility (mole fraction) (in ethanol, 298.15 K): 0.0281
- solubility (mole fraction) (in ethanol, 303.15 K): 0.0366
- solubility (mole fraction) (in ethanol, 308.15 K): 0.0467
- solubility (mole fraction) (in ethyl acetate, 273.15 K): 0.143
- solubility (mole fraction) (in ethyl acetate, 278.15 K): 0.172
- solubility (mole fraction) (in ethyl acetate, 283.15 K): 0.213
- solubility (mole fraction) (in ethyl acetate, 288.15 K): 0.254
- solubility (mole fraction) (in ethyl acetate, 293.15 K): 0.31
- solubility (mole fraction) (in ethyl acetate, 298.15 K): 0.382
- solubility (mole fraction) (in ethyl acetate, 303.15 K): 0.472
- solubility (mole fraction) (in ethyl acetate, 308.15 K): 0.566
- solubility (mole fraction) (in isobutanol, 273.15 K): 0.00604
- solubility (mole fraction) (in isobutanol, 278.15 K): 0.00768
- solubility (mole fraction) (in isobutanol, 283.15 K): 0.00962
- solubility (mole fraction) (in isobutanol, 288.15 K): 0.0123
- solubility (mole fraction) (in isobutanol, 293.15 K): 0.0163
- solubility (mole fraction) (in isobutanol, 298.15 K): 0.0219
- solubility (mole fraction) (in isobutanol, 303.15 K): 0.0306
- solubility (mole fraction) (in isobutanol, 308.15 K): 0.0424
- solubility (mole fraction) (in isopropanol, 273.15 K): 0.00588
- solubility (mole fraction) (in isopropanol, 278.15 K): 0.00782
- solubility (mole fraction) (in isopropanol, 283.15 K): 0.00957
- solubility (mole fraction) (in isopropanol, 288.15 K): 0.0123
- solubility (mole fraction) (in isopropanol, 293.15 K): 0.0163
- solubility (mole fraction) (in isopropanol, 298.15 K): 0.022
- solubility (mole fraction) (in isopropanol, 303.15 K): 0.0301
- solubility (mole fraction) (in isopropanol, 308.15 K): 0.0423
- solubility (mole fraction) (in methanol, 273.15 K): 0.00637
- solubility (mole fraction) (in methanol, 278.15 K): 0.00811
- solubility (mole fraction) (in methanol, 283.15 K): 0.00991
- solubility (mole fraction) (in methanol, 288.15 K): 0.0124
- solubility (mole fraction) (in methanol, 293.15 K): 0.0155
- solubility (mole fraction) (in methanol, 298.15 K): 0.0204
- solubility (mole fraction) (in methanol, 303.15 K): 0.027
- solubility (mole fraction) (in methanol, 308.15 K): 0.0353
- solubility (mole fraction) (in methyl acetate, 273.15 K): 0.135
- solubility (mole fraction) (in methyl acetate, 278.15 K): 0.172
- solubility (mole fraction) (in methyl acetate, 283.15 K): 0.21
- solubility (mole fraction) (in methyl acetate, 288.15 K): 0.26
- solubility (mole fraction) (in methyl acetate, 293.15 K): 0.32
- solubility (mole fraction) (in methyl acetate, 298.15 K): 0.406
- solubility (mole fraction) (in methyl acetate, 303.15 K): 0.487
- solubility (mole fraction) (in methyl acetate, 308.15 K): 0.59
- solubility (mole fraction) (in n-butanol, 273.15 K): 0.0111
- solubility (mole fraction) (in n-butanol, 278.15 K): 0.0138
- solubility (mole fraction) (in n-butanol, 283.15 K): 0.0169
- solubility (mole fraction) (in n-butanol, 288.15 K): 0.0214
- solubility (mole fraction) (in n-butanol, 293.15 K): 0.0274
- solubility (mole fraction) (in n-butanol, 298.15 K): 0.0359
- solubility (mole fraction) (in n-butanol, 303.15 K): 0.0493
- solubility (mole fraction) (in n-butanol, 308.15 K): 0.0679
- solubility (mole fraction) (in n-propanol, 273.15 K): 0.0094
- solubility (mole fraction) (in n-propanol, 278.15 K): 0.0118
- solubility (mole fraction) (in n-propanol, 283.15 K): 0.0143
- solubility (mole fraction) (in n-propanol, 288.15 K): 0.0176
- solubility (mole fraction) (in n-propanol, 293.15 K): 0.0228
- solubility (mole fraction) (in n-propanol, 298.15 K): 0.03
- solubility (mole fraction) (in n-propanol, 303.15 K): 0.0409
- solubility (mole fraction) (in n-propanol, 308.15 K): 0.058
